# Laboratory results from US20220305012A1, “L[…] TREATING SLEEP ISSUES” (EISAI R&D MANAGEMENT CO., LTD., priority 2019, published 2022).
# Legend:
# Assay type in all cases: in vivo, human
# [1] = test system: Subjects Having Insomnia Disorder; test: Example 2: latency to persistent sleep (LPS), polysomnography; conditions: 6.25 mg
# Method: As used herein, the term “latency to persistent sleep”, abbreviated as “LPS.” means the minutes from lights off to the first epoch of 20 consecutive epochs (10 minutes) of non-wakefulness.
# (§1) In some embodiments, a sleep parameter is determined objectively using polysomnography. Polysomnography is the monitoring of multiple electrophysiological parameters during sleep and generally includes measurement of EEG activity, electro-oculographic activity and electromyographic activity, as well as other measurements.
# LPS—latency to persistent sleep: minutes from lights off to the first epoch of 20 consecutive epochs of non-wakefulness.
# (§2) The treatment period lasted for 31 days. Subjects were randomized in a double-blind manner and received placebo, a tablet containing 5 mg of lemborexant, a tablet containing 10 mg of lemborexant, or a tablet containing 6.25 mg of zolpidem ER.
# (§3) Within 5 minutes of the subject's mean habitual bedtime, study drug was administered and an overnight polysomnogram recording was initiated. At completion of the recording the following morning (Day 2), postural stability and cognitive performance were assessed. On the Day 2 evening, subjects returned to the clinic and a blood sample was collected before administering study drug, and then study drug was administered within 5 minutes of the subject's mean habitual bedtime. Again, a polysomnogram recording was initiated. The next morning (Day 3), postural stability and cognitive performance were assessed. A blood sample was also collected.
# (§4) On Day 29, subjects returned to the clinic. Study drug was administered within 5 minutes of the subject's mean habitual bedtime and a polysomnogram recording was conducted. On the following morning (Day 30), postural stability and cognitive performance were assessed. After 1.5 hours of waketime, subjects rated their morning sleepiness level.
# (§5) On the evening of Day 30, subjects returned to the clinic. A pre-dose blood sample was collected and study drug was again administered within 5 minutes of the subject's mean habitual bedtime. A polysomnogram recording was initiated. The following morning (Day 31), postural stability and cognitive performance were assessed and a blood sample was obtained. The ISI, FSS, EQ-5D-3L and PGI-Insomnia were administered. Blood and urine samples were collected for routine safety assessment. An electrocardiogram was performed, and vital signs and weight were assessed. The eC-SSRS was then administered to the subject. At 1.5 hours after waketime, subjects rated their morning sleepiness level.
# The primary endpoint was to determine the change from baseline for mean latency to persistent sleep on days 29 and 30 of 5 mg or 10 mg lemborexant compared to placebo.
# [2] = test system: Subjects Having Insomnia Disorder; test: Example 2: treatment-emergent adverse events; conditions: Zolpidem ER 6.25 mg (N = 263)
# Method: Between 14 and 18 days after completion of the treatment period, subjects returned to the clinic for the end of study visit. The T-BWSQ and eC-SSRS were administered and routine safety assessments were conducted.
# A subject who prematurely discontinued taking study drug was to return to the clinic as soon as practicable after discontinuing study drug. If the subject discontinued due to an adverse event, the adverse event must have been followed to resolution or for 2 weeks, whichever came first. Additionally, subjects who discontinued early underwent a urine drug test.
# [3] = test system: Subjects Having Insomnia Disorder; test: Example 2: Cognitive Performance Assessment Battery; conditions: after the first 2 nights of treatment; 3 of the 4 domains vs placebo and 5 mg, 2 of the 4 domains vs 10 mg lemborexant (FIGS. 11A-11D)
# Method: FIG. 11A-FIG. 11D show the change from baseline (least squares mean) in the four domains of the Cognitive Performance Assessment Battery at Days 2/3 and Days 30/31 in patients treated with placebo, 6.25 mg of zolpidem, 5 mg of lemborexant, or 10 mg of lemborexant.
# Subjects were provided with a sleep diary and trained on how to record entries. After subjects completed the sleep diary on 7 consecutive mornings, and provided that the subject was still eligible to participate in the study, they attended a second clinical meeting between 10 and 17 days before the randomization phase. […]
# Within 5 minutes of the subject's mean habitual bedtime, study drug was administered and an overnight polysomnogram recording was initiated. At completion of the recording the following morning (Day 2), postural stability and cognitive performance were assessed. […] The next morning (Day 3), postural stability and cognitive performance were assessed. […]
# On Day 29, subjects returned to the clinic. […] On the following morning (Day 30), postural stability and cognitive performance were assessed. […]
# On the evening of Day 30, subjects returned to the clinic. […] The following morning (Day 31), postural stability and cognitive performance were assessed and a blood sample was obtained. […] An electrocardiogram was performed, and vital signs and weight were assessed. […]
# [4] = test system: Subjects Having Insomnia Disorder; test: Example 2: total sleep time (TST), polysomnography; conditions: Zolpidem ER 6.25 mg
# Method: as §1
# TST—total sleep time: minutes of sleep from sleep onset until terminal awakening.
# as §2, §3, §4, §5
compound,measurement,setting,value
"Cc1ccc(-c2nc3ccc(C)cn3c2CC(=O)N(C)C)cc1 [Zolpidem ER, zolpidem, reference compound]",LPS LSM treatment ratio: Active/Placebo,[1]; Days 1/2,0.972
same,"LPS, Mean",[1]; Days 1/2,31.87 min
same,"LPS, Median",[1]; Days 1/2,27.00 min
same,LPS LSM treatment ratio: Active/Placebo,[1]; Days 29/30,1.218
same,"LPS, Mean",[1]; Days 29/30,37.11 min
same,"LPS, Median",[1]; Days 29/30,28.50 min
same,"LPS, Mean",[1]; Study Baseline,44.52 min
same,"LPS, Median",[1]; Study Baseline,31.50 min
same,"LPS Change from Study Baseline, Mean",[1]; at Days 1/2,-12.56 min
same,"LPS Change from Study Baseline, Median",[1]; at Days 1/2,-5.63 min
same,"LPS Change from Study Baseline, Mean",[1]; at Days 29/30,-7.51 min
same,"LPS Change from Study Baseline, Median",[1]; at Days 29/30,-2.88 min
same,Congenital anomaly/birth defect,[2],0 n (%)
same,Deaths,[2],0 n (%)
same,Life threatening,[2],0 n (%)
same,Other SAEs,[2],4 (1.5) n (%)
same,Persistent or significant disability or incapacity,[2],0 n (%)
same,Requires inpatient hospitalization or prolongation of existing hospitalization,[2],4 (1.5) n (%)
same,Serious TEAEs,[2],4 (1.5) n (%)
same,Severe TEAEs,[2],8 (3.0) n (%)
same,TEAEs,[2],93 (35.4) n (%)
same,TEAEs leading to study dose reduced,[2],0 n (%)
same,TEAEs leading to study drug dose adjustment,[2],8 (3.0) n (%)
same,TEAEs leading to study drug interrupted,[2],2 (0.8) n (%)
same,TEAEs leading to study drug withdrawal,[2],7 (2.7) n (%)
same,Treatment-related TEAEs,[2],40 (15.2) n (%)
same,performance on Cognitive Performance Assessment Battery,[3],significantly worse performance than placebo
same,"Total Sleep Time, Change from Study Baseline, Mean (SD)",[4]; Days 1/2,55.31 (48.138)
same,"Total Sleep Time, Change from Study Baseline, Median",[4]; Days 1/2,52.00
same,"Total Sleep Time, Mean (SD)",[4]; Days 1/2,382.42 (41.528)
same,"Total Sleep Time, Median",[4]; Days 1/2,387.25
same,"Total Sleep Time, Change from Study Baseline, Mean (SD)",[4]; Days 29/30,43.34 (54.012)
same,"Total Sleep Time, Change from Study Baseline, Median",[4]; Days 29/30,39.63
same,"Total Sleep Time, Mean (SD)",[4]; Days 29/30,370.25 (48.855)
same,"Total Sleep Time, Median",[4]; Days 29/30,377.75
